Consider 45 molecules from patent publication US4387105A, “Methods of treating atherosclerosis with dialkylureas and dialkylthioureas” (priority 1982, dated 1983).

Assay [1] addresses T1, fatty acyl CoA:cholesterol acyl transferase (ACAT) (Rattus norvegicus, UniProt O70536).
T1 construct: The supernatant, containing the microsomal fraction, served as the source of the cholesterol-esterifying enzyme; from tissue; host or cells: rat adrenals (1000 x g supernatant containing the microsomal fraction)
T1 sequence (O70536 1-545): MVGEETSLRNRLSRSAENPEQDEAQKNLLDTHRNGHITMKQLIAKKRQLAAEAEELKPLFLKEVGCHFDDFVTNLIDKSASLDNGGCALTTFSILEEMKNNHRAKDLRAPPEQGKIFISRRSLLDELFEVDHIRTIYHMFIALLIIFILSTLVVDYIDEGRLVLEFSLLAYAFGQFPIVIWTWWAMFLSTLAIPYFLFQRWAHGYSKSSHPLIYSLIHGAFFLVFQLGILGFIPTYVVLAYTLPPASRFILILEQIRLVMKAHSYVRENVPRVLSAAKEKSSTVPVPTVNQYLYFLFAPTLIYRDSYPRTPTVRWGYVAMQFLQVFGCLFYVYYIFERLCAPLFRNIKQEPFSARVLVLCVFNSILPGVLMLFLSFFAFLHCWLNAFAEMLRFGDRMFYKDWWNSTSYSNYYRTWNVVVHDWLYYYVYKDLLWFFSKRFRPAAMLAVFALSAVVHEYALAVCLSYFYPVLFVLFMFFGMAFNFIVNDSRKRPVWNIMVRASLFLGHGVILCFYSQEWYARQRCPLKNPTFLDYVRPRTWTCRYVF
Description: Inhibition of ACAT in rat adrenal microsomal supernatant (14C-oleoyl CoA, cholesteryl ester counted). The format is biochemical. The arrangement: dose or concentration left out as unconfirmed. The conditions noted are these: vs control without compound. The procedure:
The compounds of the present invention were assayed for two types of biological activity related to their potential use as antiatherosclerotic agents. Compounds were tested in vitro for the ability to inhibit the enzyme fatty acyl CoA:cholesterol acyl transferase (ACAT) and in vivo for serum hypolipidemic activity as measured by their ability to inhibit lipid absorption in rats. The compounds were tested for their ability to inhibit ACAT according to the following procedure:
Rat adrenals were homogenized in 0.2 M monobasic potassium phosphate buffer, pH 7.4, and centrifuged at 1000 times gravity for 15 minutes at 5° C. The supernatant, containing the microsomal fraction, served as the source of the cholesterol-esterifying enzyme, fatty acyl CoA:cholesterol acyl transferase (ACAT). A mixture comprising 50 parts of adrenal supernatant, 10 parts of albumin (BSA) (50 mg./ml.), 3 parts of test compound (final concentration […].) and 500 parts of buffer was preincubated at 37° C. for 10 minutes. After treatment with 20 parts of oleoyl CoA(^14 C-[…]) the mixture was incubated at 37° C. for 10 minutes. A control mixture, omitting the test compound, was prepared and treated in the same manner. The lipids from the incubation mixture were extracted into an organic solvent and separated by thin-layer chromatography. The cholesteryl ester fraction was counted in a scintillation counter. This procedure is a modification of that described by Hashimoto, et al., Life Scie., 12 (Part II), 1-12 (1973).

In another assay the test system is cholesterol absorption. The conditions noted are these: po, 0.03 % of diet, 336 h.

Description for cholesterol absorption: Inhibition of cholesterol absorption was determined by feeding male Sprague-Dawley rats, weighing 150-170 g., a 1% cholesterol:0.5% cholic acid diet for 2 weeks. The diet also contained compounds being tested at a dose of 0.03% of the diet. Control rats were fed the same diet without any compound. At the end of the test the rats were sacrificed by decapitation. […] Livers are removed, a 0.4 g sample is taken from the center of the large lobe, and the sample is subjected to saponification using 25% saturated potassium hydroxide in ethanol. The resulting neutral sterols are extracted with petroleum ether and extract analyzed for cholesterol. The effectiveness of the compound in inhibiting cholesterol absorption is measured by the lowering of either serum cholesterol or liver cholesterol relative the values for control rats.

`CCCCN(CCCC)C(=O)Nc1ccc(Cl)cc1Cl` [1,1-Di-(n-butyl)-3-(2,4-dichlorophenyl)urea]: the “% Inhibition” value in assay [1] was determined as 70.0%.

With `CCCCN(CCCC)C(=O)Nc1ccc(I)cc1` [1,1-di-(n-butyl)-3-(4-iodophenyl)urea, 1,1-Di-(n-butyl)-3-(4-iodophenyl)urea], the “% Inhibition” value in assay [1] was determined as 83.1%.

Regarding `CCCCN(CCCC)C(=O)Nc1ccc(OC)cc1` [1,1-di-(n-butyl)-3-(4-methoxyphenyl)urea, 1,1-Di-(n-butyl)-3-(4-methoxyphenyl)urea], in assay [1], the “% Inhibition” value turned out to be 58.7%.

`CCCCN(CCCC)C(=O)Nc1cccc(Br)c1` [1,1-di-(n-butyl)-3-(3-bromophenyl)urea, 1,1-Di(n-butyl)-3-(3-bromophenyl)urea]: the “% Inhibition” value in assay [1] amounted to 86.0%.

Regarding `CCCCN(CCCC)C(=O)Nc1c(C)cccc1C` [1,1-Di-(n-butyl)-3-(2,6-dimethylphenyl)urea], the “% Inhibition” value in assay [1] is listed as 85.3%.

As to `CCCCN(CCCC)C(=O)Nc1ccccc1Cl` [1,1-di-(n-butyl)-3-(2-chlorophenyl)urea, 1,1-Di-(n-butyl)-3-(2-chlorophenyl)urea], in assay [1], the “% Inhibition” value came to 71.0%.

With `CCCCN(CCCC)C(=O)Nc1ccc(F)cc1` [1,1-di-(n-butyl)-3-(4-fluorophenyl)urea, 1,1-Di-(n-butyl)-3-(4-fluorophenyl)urea], the “% Inhibition” value in assay [1] was determined as 55.9%.

With `CCCCCCCCCN(CCCCCCCCC)C(=O)Nc1ccc(C)cc1C` [1,1-Di-(n-nonyl)-3-(2,4-dimethylphenyl)urea], the “% Inhibition” value in assay [1] came to 90.0%.

As to `Cc1ccc(NC(=O)N(CCC(C)CC(C)(C)C)CCC(C)CC(C)(C)C)c(C)c1` (stereo not shown) [1,1-di-(3,5,5-trimethylhexyl)-3-(2,4-dimethylphenyl)urea], in the assay on cholesterol absorption, the “Result (inhibition of cholesterol absorption: lowering of either serum cholesterol or liver cholesterol relative to control rats)” value is given as “Active”. For the same molecule, in assay [1], the “% Inhibition” value is reported as 90.4%.

As to `CCCCN(CCCC)C(=O)Nc1cccc(C(C)=O)c1` [1,1-di-(n-butyl)-3-(3-acetylphenyl)urea, 1,1-Di-(n-butyl)-3-(3-acetylphenyl)urea], the “% Inhibition” value in assay [1] is 50.9%.

In the case of `CCCCN(CCCC)C(=O)Nc1cccc(SC)c1` [1,1-Di-(n-butyl)-3-(3-methylthiophenyl)urea], the “% Inhibition” value in assay [1] was 84.7%.

On to `CCCCN(CCCC)C(=O)Nc1ccc(C(C)C)cc1` [1,1-Di-(n-butyl)-3-(4-isopropylphenyl)urea], for which the “% Inhibition” value in assay [1] is 76.4%.

With `CCCCCCCCCCCCN(CCCCCCCCCCCC)C(=O)Nc1ccc(C)cc1C` [1,1-Di-(n-dodecyl)-3-(2,4-dimethylphenyl)urea], in assay [1], the “% Inhibition” value is 26.3%.

`CCCCN(CCCC)C(=O)Nc1c(C)cc(C)cc1C` [1,1-Di-(n-butyl)-3-(2,4,6-trimethylphenyl)urea]: in assay [1], the “% Inhibition” value was 73.4%.

Consider `CCCCN(CCCC)C(=O)Nc1cccc(Cl)c1Cl` [1,1-Di-(n-butyl)-3-(2,3-dichlorophenyl)urea], for which, in assay [1], the “% Inhibition” value stood at 71.8%.

`CCCCN(CCCC)C(=O)Nc1ccc(C(C)=O)cc1` [1,1-di-(n-butyl)-3-(4-acetylphenyl)urea, 1,1-Di-(n-butyl)-3-(4-acetylphenyl)urea]: the “% Inhibition” value in assay [1] came out at 55.1%.

As to `CCCCN(CCCC)C(=O)Nc1cc(Cl)ccc1C` [1,1-di-(n-butyl)-3-(5-chloro-2-methylphenyl)urea], the “% Inhibition” value in assay [1] amounted to 75.3%.

As for `CCCCN(CCCC)C(=O)Nc1cccc(C)c1` [1,1-di-(n-butyl)-3-(3-methylphenyl)urea, 1,1-Di-(n-butyl)-3-(3-methylphenyl)urea], the “% Inhibition” value in assay [1] is 78.4%.

Take `CCCCN(CCCC)C(=O)Nc1ccc(F)c(Cl)c1` [1,1-Di-(n-butyl)-3-(3-chloro-4-fluorophenyl)urea]: the “% Inhibition” value in assay [1] was 90.9%.

Turning to `Cc1ccc(NC(=O)N(C2CCCC2)C2CCCC2)c(C)c1` [1,1-Di-(cyclopentyl)-3-(2,4-dimethylphenyl)urea], in assay [1], the “% Inhibition” value came to 90.4%.

As to `CC(C)CN(CC(C)C)C(=O)Nc1ccccc1Cl` [1,1-di-(isobutyl)-3-(2-chlorophenyl)urea], the “% Inhibition” value in assay [1] is reported as 35.4%.

`CCCCN(CCCC)C(=O)Nc1ccc(C)c(NC(=O)N(CCCC)CCCC)c1` [1,1-di-(n-butyl)-3-[(3,3-dibutyl)urea-4-methylphenyl]urea]: the “% Inhibition” value in assay [1] worked out at 94.5%.

On to `CCCCN(CCCC)C(=O)Nc1ccc(OCC)cc1` [1,1-di-(n-butyl)-3-(4-ethoxyphenyl)urea, 1,1-Di-(n-butyl)-3-(4-ethoxyphenyl)urea], for which, in assay [1], the “% Inhibition” value turned out to be 78.6%.

As for `CCCCN(CCCC)C(=O)Nc1cc(Cl)cc(Cl)c1Cl` [1,1-Di-(n-butyl)-3-(2,3,5-trichlorophenyl)urea], in assay [1], the “% Inhibition” value was 61.6%.

Consider `CCCCC(CC)CN(CC(CC)CCCC)C(=O)Nc1ccc(C)cc1C` (stereo not shown) [1,1-di-(2-ethylhexyl)-3-(2,4-dimethylphenyl)urea], for which, in assay [1], the “% Inhibition” value is reported as 86.2%.

On to `Cc1ccc(C)c(NC(=O)N(CC(C)C)CC(C)C)c1` [1,1-di-(isobutyl)-3-(2,5-dimethylphenyl)urea], for which the “% Inhibition” value in assay [1] is 74.3%.

On to `Cc1cccc(C)c1NC(=O)N(CC(C)C)CC(C)C` [1,1-di-(isobutyl)-3-(2,6-dimethylphenyl)urea], for which the “% Inhibition” value in assay [1] is 41.2%.

For `CCCCCCCCCCCN(CCCCCCCCCCC)C(=O)Nc1ccc(C)cc1C` [1,1-Di-(n-undecyl)-3-(2,4-dimethylphenyl)urea], in assay [1], the “% Inhibition” value is listed as 48.9%.

In the case of `Cc1ccc(NC(=O)N(CC(C)C)CC(C)C)cc1NC(=O)N(CC(C)C)CC(C)C` [1,1-di-(isobutyl)-3-[(3,3-diisobutyl)urea-4-methylphenyl]urea], the “% Inhibition” value in assay [1] was 94.7%.

Regarding `CCCCN(CCCC)C(=O)Nc1ccc([N+](=O)[O-])cc1Cl` [1,1-Di-(n-butyl)-3-(2-chloro-4-nitrophenyl)urea], the “% Inhibition” value in assay [1] is 86.7%.

On to `CCCCN(CCCC)C(=O)Nc1cccc(C(F)(F)F)c1` [1,1-Di-(n-butyl)-3-(3-trifluoromethylphenyl)urea], for which, in assay [1], the “% Inhibition” value was found to be 75.0%.

In the case of `Cc1ccc(NC(=O)N(C2CCCCC2)C2CCCCC2)c(C)c1` [1,1-dicyclohexyl-3-(2,4-dimethylphenyl)urea], the “% Inhibition” value in assay [1] is 94.3%.

With `CCC(C)N(C(=O)Nc1ccc(C)cc1C)C(C)CC` (stereo not shown) [1,1-Di-(sec-butyl)-3-(2,4-dimethylphenyl)urea], the “% Inhibition” value in assay [1] amounted to 78.1%.

On to `CCCCN(CCCC)C(=O)Nc1cccc(Cl)c1` [1,1-di-(n-butyl)-3-(3-chlorophenyl)urea, 1,1-Di-(n-butyl)-3-(3-chlorophenyl)urea], for which the “% Inhibition” value in assay [1] is 88.3%.

With `CCCCN(CCCC)C(=O)Nc1ccc(C)c(C)c1` [1,1-Di-(n-butyl)-3-(3,4-dimethylphenyl)urea], the “% Inhibition” value in assay [1] is on record as 49.2%.

For `CCCCCCCN(CCCCCCC)C(=O)Nc1ccc(C)cc1C` [1,1-Di-(n-heptyl)-3-(2,4-dimethylphenyl)urea], the “% Inhibition” value in assay [1] was determined as 91.1%.

Consider `CCCCN(CCCC)C(=O)Nc1ccc(C)c(Cl)c1` [1,1-Di-(n-butyl)-3-(3-chloro-4-methylphenyl)urea], for which the “% Inhibition” value in assay [1] was found to be 91.2%.

With `CCCCN(CCCC)C(=O)Nc1cccc(C)c1C` [1,1-Di-(n-butyl)-3-(2,3-dimethylphenyl)urea], the “% Inhibition” value in assay [1] worked out at 87.6%.

For the molecule `CCCCN(CCCC)C(=O)Nc1ccc(C)cc1` [1,1-di-(n-butyl)-3-(4-methylphenyl)urea, 1,1-Di-(n-butyl)-3-(4-methylphenyl)urea], the “% Inhibition” value in assay [1] is given as 79.9%.

`CCCCN(CCCC)C(=O)Nc1ccc(Cl)cc1C` [1,1-di-(n-butyl)-3-(4-chloro-2-methylphenyl)urea]: the “% Inhibition” value in assay [1] is recorded as 88.0%.

As to “1,1-di-(n-butyl)-3-(2,3-dibenzophenyl)urea”, the “% Inhibition” value in assay [1] turned out to be 85.1%.

For the molecule `CCCCN(CCCC)C(=O)Nc1cccc(OC)c1` [1,1-di-(n-butyl)-3-(3-methoxyphenyl)urea], the “% Inhibition” value in assay [1] was found to be 77.1%.

For the molecule `Cc1ccc(NC(=O)N(CCCCC2CCCCC2)CCCCC2CCCCC2)c(C)c1` [1,1-Di-(4-cyclohexyl-n-butyl)-3-(2,4-dimethylphenyl)urea], the “% Inhibition” value in assay [1] was 86.3%.

`CCCCN(CCCC)C(=O)Nc1cc(C)ccc1C` [1,1-Di-(n-butyl)-3-(2,5-dimethylphenyl)urea]: the “% Inhibition” value in assay [1] was 96.1%.

Consider `CCCCN(CCCC)C(=O)Nc1ccc(Cl)c(C(F)(F)F)c1` [1,1-Di-(n-butyl)-3-(4-chloro-3-trifluoromethylphenyl)urea], for which the “% Inhibition” value in assay [1] is reported as 87.3%.
